Tested on: LNCaP cells expressing ARR2PB-FireflyLuc and CMV-RenillaLuc
Assay: LNCaP ARR2PB-FireflyLuc reporter assay, antagonist mode
Type: cell-based
Details: Homo sapiens, LNCaP, 48 h, +0.5 nM DHT, 48 h at 37° C., read-out: LNCap Antagonist Archive: IC50
Outline: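 LNCaP cells carrying ARR2PB-firefly and CMV-Renilla luciferase reporters were exposed to compound with 0.5 nM DHT for 48 h at 37° C. Remaining activity was scaled between 0.5 nM DHT alone (high) and 10 uM enzalutamide + 0.5 nM DHT (low). IC50 from non-linear regression, reported in bins A–D.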

**Q.** For `Cc1nccc2cc(C(=O)N(C)C34CC(F)(C3)C4)n(C)c12` [Example 132, N-{3-fluorobicyclo[1.1.1]pentan-1-yl}-N,1,7-trimethylpyrrolo[2,3-c]pyridine-2-carboxamide], which IC50 is on record?
**A.** 1000 to 10000 nM

**Q.** `CN(C(=O)c1cc2ccnc(C#N)c2n1C)C12CC(F)(C1)C2` [Example 133, 7-cyano-N-{3-fluorobicyclo[1.1.1]pentan-1-yl}-N,1-dimethylpyrrolo[2,3-c]pyridine-2-carboxamide] was tested. Which IC50 did it give?
**A.** 100 to 1000 nM

**Q.** `CC(C)N(C)C(=O)c1cc2ccnc(Cl)c2n1C` [Example 134, 7-chloro-N-isopropyl-N,1-dimethylpyrrolo[2,3-c]pyridine-2-carboxamide] was tested. Which IC50 did it give?
**A.** 100 to 1000 nM

**Q.** How did the IC50 turn out when `NCCn1c(C(=O)NC23CC(F)(C2)C3)cc2ccnc(Cl)c21` [Example 137, 1-(2-aminoethyl)-7-chloro-N-{3-fluorobicyclo[1.1.1]pentan-1-yl}pyrrolo[2,3-c]pyridine-2-carboxamide] was run?
**A.** > 10000 nM

**Q.** `O=C(NC12CC(F)(C1)C2)c1cc2ccnc(Cl)c2n1CCO` [Example 138, 7-chloro-N-{3-fluorobicyclo[1.1.1]pentan-1-yl}-1-(2-hydroxyethyl)pyrrolo[2,3-c]pyridine-2-carboxamide] was tested. Which IC50 did it give?
**A.** 1000 to 10000 nM

**Q.** For `COCCn1c(C(=O)NC23CC(F)(C2)C3)cc2ccnc(Cl)c21` [Example 139, 7-chloro-N-{3-fluorobicyclo[1.1.1]pentan-1-yl}-1-(2-methoxyethyl)pyrrolo[2,3-c]pyridine-2-carboxamide], which IC50 is on record?
**A.** 1000 to 10000 nM

**Q.** `Cn1c(C(=O)NC23CC(F)(C2)C3)c(F)c2ccnc(Cl)c21` [Example 140, 7-chloro-3-fluoro-N-{3-fluorobicyclo[1.1.1]pentan-1-yl}-1-methylpyrrolo[2,3-c]pyridine-2-carboxamide] was tested. Which IC50 did it give?
**A.** 100 to 1000 nM

**Q.** For `O=C(NC12CC(F)(C1)C2)c1cc2ccnc(Cl)c2n1CCN1CCOCC1` [Example 141, 7-chloro-N-{3-fluorobicyclo[1.1.1]pentan-1-yl}-1-[2-(morpholin-4-yl)ethyl]pyrrolo[2,3-c]pyridine-2-carboxamide], which IC50 is on record?
**A.** > 10000 nM

**Q.** `Cn1c(C(=O)NC23CC(C)(C2)C3)cc2ccnc(Cl)c21` [Example 142, 7-chloro-1-methyl-N-{3-methylbicyclo[1.1.1]pentan-1-yl}pyrrolo[2,3-c]pyridine-2-carboxamide] was tested. Which IC50 did it give?
**A.** 1000 to 10000 nM

**Q.** `Cn1c(C(=O)NC2CCC2)cc2ccnc(Cl)c21` [Example 143, 7-chloro-N-cyclobutyl-1-methylpyrrolo[2,3-c]pyridine-2-carboxamide] was tested. Which IC50 did it give?
**A.** 100 to 1000 nM

**Q.** How did the IC50 turn out when `Cn1c(C(=O)NC2(C)CCC2)cc2ccnc(Cl)c21` [Example 147, 7-chloro-1-methyl-N-(1-methylcyclobutyl)pyrrolo[2,3-c]pyridine-2-carboxamide] was run?
**A.** 100 to 1000 nM

**Q.** How did the IC50 turn out when `Cn1c(C(=O)NC(C)(C)C)cc2ccnc(Cl)c21` [Example 148, N-tert-butyl-7-chloro-1-methylpyrrolo[2,3-c]pyridine-2-carboxamide] was run?
**A.** 100 to 1000 nM

**Q.** `Cn1c(C(=O)NC2CC3(CC3)C2)cc2ccnc(Cl)c21` [Example 149, 7-chloro-1-methyl-N-{spiro[2.3]hexan-5-yl}pyrrolo[2,3-c]pyridine-2-carboxamide] was tested. Which IC50 did it give?
**A.** 1000 to 10000 nM

**Q.** For `Cn1c(C(=O)NC2CC3(CCC3)C2)cc2ccnc(Cl)c21` [Example 150, 7-chloro-1-methyl-N-{spiro[3.3]heptan-2-yl}pyrrolo[2,3-c]pyridine-2-carboxamide], which IC50 is on record?
**A.** 1000 to 10000 nM

**Q.** For `CCn1c(C(=O)N(C)C23CC(F)(C2)C3)cc2ccnc(C#N)c21` [Example 151, 7-cyano-1-ethyl-N-(3-fluorobicyclo[1.1.1]pentan-1-yl)-N-methyl-1H-pyrrolo[2,3-c]pyridine-2-carboxamide], which IC50 is on record?
**A.** 100 to 1000 nM

**Q.** How did the IC50 turn out when `Cc1nccc2cc(C(=O)NC34CCC(C3)C4)n(C)c12` [Example 152, N-(bicyclo[2.1.1]hexan-1-yl)-1,7-dimethyl-1H-pyrrolo[2,3-c]pyridine-2-carboxamide] was run?
**A.** 1000 to 10000 nM

**Q.** With `CCn1c(C(=O)N(C)C23CC(F)(C2)C3)cc2ccnc(Cl)c21` [Example 153, 7-chloro-1-ethyl-N-(3-fluorobicyclo[1.1.1]pentan-1-yl)-N-methyl-1H-pyrrolo[2,3-c]pyridine-2-carboxamide] as the compound, how does the IC50 read?
**A.** < 100 nM

**Q.** How did the IC50 turn out when `Cn1c(C(=O)NC23CC(F)(C2)C3)cc2ccnc(C(F)(F)F)c21` [Example 154, N-(3-fluorobicyclo[1.1.1]pentan-1-yl)-1-methyl-7-(trifluoromethyl)-1H-pyrrolo[2,3-c]pyridine-2-carboxamide] was run?
**A.** 1000 to 10000 nM

**Q.** For `Cn1c(C(=O)NC23CC(C2)C3)cc2ccc(C#N)cc21` [Example 155, N-(bicyclo[1.1.1]pentan-1-yl)-6-cyano-1-methyl-1H-indole-2-carboxamide], which IC50 is on record?
**A.** 1000 to 10000 nM

**Q.** How did the IC50 turn out when `Cn1c(C(=O)NC23CC(C2)C3)cc2ccncc21` [Example 156, N-(bicyclo[1.1.1]pentan-1-yl)-1-methyl-1H-pyrrolo[2,3-c]pyridine-2-carboxamide] was run?
**A.** 100 to 1000 nM

**Q.** How did the IC50 turn out when `Cn1c(C(=O)NC23CC(C2)C3)cc2ccc(F)cc21` [Example 157, N-(bicyclo[1.1.1]pentan-1-yl)-6-fluoro-1-methyl-1H-indole-2-carboxamide] was run?
**A.** 1000 to 10000 nM

**Q.** Which IC50 does the source give for `O=C(NC12CC(F)(C1)C2)c1cc2c(Cl)nccc2s1` [Example 158, 4-chloro-N-(3-fluorobicyclo[1.1.1]pentan-1-yl)thieno[3,2-c]pyridine-2-carboxamide] here?
**A.** 100 to 1000 nM

**Q.** For `COCCN(C(=O)c1cc2ccc(F)cc2[nH]1)c1ccc(C#N)cn1` [Example 159], which IC50 is on record?
**A.** 1000 to 10000 nM

**Q.** `COCCN(C(=O)c1cc2ccc(F)cc2[nH]1)c1ccc(Cl)cn1` [Example 160] was tested. Which IC50 did it give?
**A.** 1000 to 10000 nM

**Q.** With `COCCN(C(=O)c1cc2ccc(F)cc2[nH]1)c1ncccn1` [Example 161] as the compound, how does the IC50 read?
**A.** 1000 to 10000 nM

Source: US12012398B2, “Bicyclic compounds as androgen receptor modulators” (NIDO BIOSCIENCES, INC., priority 2021, dated 2024)
